Reference: patent US8901129B2, “Methods of facilitating neural cell survival using GDNF family ligand (GFL) mimetics or RET signaling pathway activators” (GeneCode AS, priority 2009, dated 2014)

Experiments:
[1] = target: T1, GFRα3/RET (Homo sapiens, UniProt O60609+P07949); experiment: RET phosphorylation by BT compounds, IP and Western blotting (FIG. 6B); format: cell-based; details: 100 μM, 15 min; MG87 RET fibroblasts transfected with GFRα3
T1 construct: Full-length human GFRα3 cDNA (Wang et al., 2006); expressed in transfected cells; host or cells: MG87RET murine fibroblasts transiently transfected with GFRα3
T1 sequence (O60609 32-374 limits assumed): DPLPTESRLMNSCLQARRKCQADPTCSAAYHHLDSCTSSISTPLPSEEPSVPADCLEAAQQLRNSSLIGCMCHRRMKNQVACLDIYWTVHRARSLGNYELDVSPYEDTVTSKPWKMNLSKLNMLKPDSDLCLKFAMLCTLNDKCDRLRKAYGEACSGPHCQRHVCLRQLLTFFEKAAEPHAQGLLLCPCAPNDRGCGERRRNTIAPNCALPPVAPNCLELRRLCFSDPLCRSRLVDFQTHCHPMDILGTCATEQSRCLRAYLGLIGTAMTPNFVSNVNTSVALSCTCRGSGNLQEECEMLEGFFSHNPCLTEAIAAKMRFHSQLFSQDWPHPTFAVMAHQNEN
T1 sequence (P07949 29-1114): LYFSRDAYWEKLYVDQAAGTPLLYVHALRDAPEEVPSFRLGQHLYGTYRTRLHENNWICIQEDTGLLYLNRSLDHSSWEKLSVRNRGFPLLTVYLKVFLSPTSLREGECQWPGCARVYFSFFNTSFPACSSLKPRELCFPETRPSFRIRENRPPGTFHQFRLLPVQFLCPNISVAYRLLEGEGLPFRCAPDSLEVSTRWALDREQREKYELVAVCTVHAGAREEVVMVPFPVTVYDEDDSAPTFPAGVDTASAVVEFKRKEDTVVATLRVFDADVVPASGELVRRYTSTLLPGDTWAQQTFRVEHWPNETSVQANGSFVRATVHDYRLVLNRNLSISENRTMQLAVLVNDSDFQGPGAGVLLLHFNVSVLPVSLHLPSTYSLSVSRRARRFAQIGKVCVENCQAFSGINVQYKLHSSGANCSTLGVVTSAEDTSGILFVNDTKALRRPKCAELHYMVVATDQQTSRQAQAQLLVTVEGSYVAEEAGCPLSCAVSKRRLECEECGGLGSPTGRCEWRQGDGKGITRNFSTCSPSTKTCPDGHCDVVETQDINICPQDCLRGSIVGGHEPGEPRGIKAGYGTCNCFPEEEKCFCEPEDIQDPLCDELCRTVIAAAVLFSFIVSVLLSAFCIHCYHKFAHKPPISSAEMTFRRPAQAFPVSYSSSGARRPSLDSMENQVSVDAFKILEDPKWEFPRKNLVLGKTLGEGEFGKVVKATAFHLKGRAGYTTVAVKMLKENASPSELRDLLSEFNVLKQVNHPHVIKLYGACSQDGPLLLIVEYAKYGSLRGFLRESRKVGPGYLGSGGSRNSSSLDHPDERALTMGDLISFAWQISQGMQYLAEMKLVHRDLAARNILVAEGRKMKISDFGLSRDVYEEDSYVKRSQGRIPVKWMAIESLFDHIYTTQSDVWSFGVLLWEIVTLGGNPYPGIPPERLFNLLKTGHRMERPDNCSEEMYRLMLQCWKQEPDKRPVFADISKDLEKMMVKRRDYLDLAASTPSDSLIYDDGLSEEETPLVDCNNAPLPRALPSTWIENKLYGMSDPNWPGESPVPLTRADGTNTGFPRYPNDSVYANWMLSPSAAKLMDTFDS
Experimental: MG87RET cells were plated on 35 mm tissue culture dishes the day before the experiment. Cells were transfected with GFRα1, GFRα3 or with an vector encoding for GFP. On the day of the experiment cells were starved for 4 hours in serum-free DMEM and stimulated with the investigated compounds (structures shown in the description of FIG. 6, above) at 100 μM concentration or with 100 ng/ml of GDNF or ARTN (positive control) for 15 min. Then cells were washed once with ice-cold PBS containing 1 mM Na3VO4 and lysed on ice in 1 ml per well of RIPA-modified buffer (50 mM Tris-HCl, pH 7.4, 150 mM NaCl, 1 mM EDTA, 1% NP-40, 1% TX-100, 10% glycerol, EDTA-free protease inhibitor cocktail (Roche), 1 mM Na3VO4, 2.5 mg/ml of sodium deoxycholate, 1 mM PMSF. Ret was immunoprecipitated by anti-RET C-20 antibodies (Santa-Cruz Biotechnology, Inc.). Precipitated proteins were resolved on 7.5% SDS-PAGE and then transferred onto a nitrocellulose membrane. Membrane was blocked for 15 min at room temperature by 10% nonfat dry milk in TBS-T and probed with anti-phosphotyrosine antibodies (clone 4G10, Upstate Biotechnology) diluted 1:1000 in TBS-T containing 3% nonfat dry milk for 2 hours at room temperature. The membranes were washed 3 times for 5 min in TBS-T and incubated in the 1:3000 solution of secondary anti-mouse antibodies conjugated with HRP (DAKO) diluted in TBS-T containing 3% nonfat dry milk for 45 min at room temperature. Membranes were washed with TBS-T for 5×10 min. Stained bands were visualized with ECL reagent (Pierce) using LAS3000 imaging program. To confirm equal loading of the proteins, membranes were probed with anti-RET C-20 antibodies (1:500, Santa-Cruz Biotechnology, inc.) after stripping. We used secondary anti-goat antibodies conjugated with HRP (1:1500, DAKO) to detect C-20.

[2] = tested on: 6-OHDA lesioned rats; experiment: Amphetamine induced rotation asymmetry in 6-OHDA rat model of Parkinson's disease (FIG. 7); format: in vivo; details: for amphetamine-induced ipsilateral rotation: 3 weeks after 6-OHDA, measured 6 weeks after 6-OHDA; for amphetamine-induced ipsilateral rotation of lesioned rats: injected into striatum 3 weeks after 6-OHDA, dose not stated
Excerpt: The objective of this study is to investigate the effect of intrastriatally (i.s.) administered small molecule GDNF mimetics (compounds 13, 16, 319H6 and 292651, structures shown in the description of the Figures, above) in a rat model 6-OHDA of Parkinson's disease. In the sub-acute lesion model used in this study, the lesion of the substantia nigra (SNc) that slowly progresses over weeks is created by injection of 6-OHDA into the proximity of the dopaminergic terminals in the striatum (Kirik-D 1998, Exp. Neurol. 152:259-277). In this model, a portion of the nigrostriatal projection is left intact, which can serve as a substrate for regeneration and functional recovery in response to growth promoting and neuroprotective agents.
GDNF mimetics compounds, GDNF or vehicle is administered to the striatum at 3 weeks after the exposure to the neurotoxin 6-OHDA. The selective damage to dopaminergic neurons in the SNc, as well as striatal levels of dopamine and its metabolites are evaluated 12 weeks after the injection of 6-OHDA with tyrosine hydroxylase (TH) immunohistochemistry and HPLC, respectively. In addition, the behavioral impairment of rats is evaluated by forelimb asymmetry test (cylinder test), amphetamine induced rotation asymmetry test and Y-maze test for stereotypic spontaneous rotation deficits.
Animals: All animal experiments are carried out according to the National Institute of Health (NIH) guidelines for the care and use of laboratory animals, and approved by the State Provincial Office of Southern Finland. Altogether 108 male Wistar rats, purchased from Charles River, Germany and weighing 220-275 g are used for the experiment. Animals are housed at a standard temperature (22±1° C.) and in a light-controlled environment (lights on from 7 am to 8 pm) with ad libitum access to food and water. Animals are grouped as follows:
In order to generate partial retrograde degeneration into the SNc, 6-OHDA lesioning is carried out according to Sauer and Oertel with modifications (Sauer and Oertel, 1994). Male Wistar rats are anesthetized with 5% isoflurane (in 70% N2O and 30% O2; flow 300 ml/min) and placed in a stereotactic frame. During the operation concentration of anesthetic is reduced to 1-1.5%. The rectal temperature is maintained at 37.0±1.0° C. with a homeothermic blanket system. The right brain hemisphere is exposed through a small craniectomy to the skull. The dura mater is carefully removed with fine forceps and a stereotaxic injection of 6-OHDA (4 μg/μl) is made into the right striatum. A total of 7 μl of 6-OHDA is infused at a speed of 0.5 μl/min and is equally distributed between 4 sites at the following coordinates: AP+1.0, ML+2.8, DV−6.0, −5.5, −5.0 and −4.4 mm. The cannula is left in place for another 5 min before being withdrawn. The hole in the skull is subsequently filled with repair material and the skin is closed and disinfected. The rats are allowed to recover from anesthesia and are carefully monitored for possible post surgical complications. The animals are returned to the home cages with ad libitum access to food and water.
On day 21, rats are re-anesthetized with 5% isoflurane (in 70% N2O and 30% O2; flow 300 ml/min) and placed in a stereotactic frame. During the operation concentration of anesthetic is reduced to 1-1.5%. The rectal temperature is maintained at 37.0±1.0° C. with a homeothermic blanket system. The right brain hemisphere is exposed through a small craniectomy to the skull. A stereotaxic injection of the test compound, GDNF or vehicle is made into the right striatum. Each dosing solution is infused at a speed of 1 μl/min and is equally distributed between 4 sites at the following coordinates: AP+1.0, ML+2.8, DV−6.0, −5.5, −5.0 and −4.4 mm. The cannula is left in place for another 5 min before being withdrawn. The hole in the skull is subsequently filled with repair material and the skin is closed and disinfected. […]

**Q.** `CCN(CC)S(=O)(=O)c1ccc(OC)c(N2CCN(C(=O)c3cc(F)ccc3C(F)(F)F)CC2)c1` [BT13] was tested. Which “RET phosphorylation via GFRα3” value [1] did it give?
**A.** strongly activated RET

**Q.** And the amphetamine-induced ipsilateral rotation ([2]; 0.2 ug intrastriatal)?
**A.** reduced amphetamine-induced ipsilateral rotation

**Q.** And the “amphetamine-induced ipsilateral rotation of lesioned rats” value [2]?
**A.** significantly reduce

**Q.** With `COc1cc2c(cc1OC)CN(S(=O)(=O)c1ccc(OC)c(N3CCN(C(=O)c4cc(F)ccc4C(F)(F)F)CC3)c1)CC2` [BT18] as the compound, how does the “RET phosphorylation via GFRα3” value [1] read?
**A.** likely the weaker GFRα3/RET agonists

**Q.** And the amphetamine-induced ipsilateral rotation ([2]; 1 ug intrastriatal)?
**A.** reduced amphetamine-induced ipsilateral rotation

**Q.** What about the “amphetamine-induced ipsilateral rotation of lesioned rats” value [2] of the same compound?
**A.** significantly reduce

**Q.** Which “RET phosphorylation via GFRα3” value [1] does the source give for `COc1ccc(S(=O)(=O)N2CCc3ccccc3C2)cc1N1CCN(C(=O)c2cc(F)ccc2C(F)(F)F)CC1` [BT16] here?
**A.** likely the weaker GFRα3/RET agonists

**Q.** And the “amphetamine-induced ipsilateral rotation of lesioned rats” value [2]?
**A.** significantly reduce

**Q.** What about the amphetamine-induced ipsilateral rotation ([2]; intrastriatal (Group 5: 0.5 ug per rat)) of the same compound?
**A.** reduced amphetamine-induced ipsilateral rotation
